Measured values reported in the supplement of paper PMC10307832.

How the values were obtained:
Test in all cases: relative viability (nuclei count vs DMSO), 5 days (fraction); higher = more cells survive
[1] = compound: C1=CC=C2C(=C1)C=CC(=C2SSC3=C(C=CC4=CC=CC=C43)O)O [IPA-3] + N=C(N)NC(=N)NCCc1ccccc1 [Phenformin] (partner 250 µM)
In short: (§1)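 Cells from lung cancer lines were seeded into 1536-well plates and, one day later, dosed by pin tool. Treatments were either a single drug or a fixed dose of an anchor drug with five library-drug doses (not always all listed) in √10 steps. After 5 days, nuclei were stained in a one-step fixation (final 0.05% Triton X-100, 1% formaldehyde, 1 ug/ml Hoechst) and counted on 4× images, and relative viability is the treated-to-vehicle nuclei ratio, as the median of duplicate plates.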

[2] = compound: C1=CC=C2C(=C1)C=CC(=C2SSC3=C(C=CC4=CC=CC=C43)O)O [IPA-3] + COc1cccc2cc(-c3nc([C@H]4CC[C@H](C(=O)O)CC4)n4ncnc(N)c34)[nH]c12 [OSI-027] (partner 0.5 µM)
In short: as §1

[3] = compound: Cn1c(Nc2ccc(C(F)(F)F)cc2)nc2cc(Oc3ccnc(-c4ncc(C(F)(F)F)[nH]4)c3)ccc21 [RAF265] + CC(C)C[C@H](NC(=O)[C@H](Cc1ccccc1)NC(=O)c1cnccn1)B(O)O [Bortezomib] (partner 0.002 µM)
In short: as §1

[4] = compound: Cc1ccc(-n2nc(C(C)(C)C)cc2NC(=O)Nc2ccc(OCCN3CCOCC3)c3ccccc23)cc1 [Doramapimod] + CC(C)C[C@H](NC(=O)[C@H](Cc1ccccc1)NC(=O)c1cnccn1)B(O)O [Bortezomib] (partner 0.002 µM)
In short: as §1

Cell Line | relative viability ([1]; first compound 0.2 µM) | relative viability ([1]; first compound 0.6325 µM) | relative viability ([1]; first compound 2 µM) | relative viability ([1]; first compound 6.325 µM) | relative viability ([1]; first compound 20 µM) | relative viability ([2]; first compound 0.2 µM) | relative viability ([2]; first compound 0.6325 µM) | relative viability ([2]; first compound 2 µM) | relative viability ([2]; first compound 6.325 µM) | relative viability ([2]; first compound 20 µM) | relative viability ([3]; first compound 0.01 µM) | relative viability ([3]; first compound 0.03162 µM) | relative viability ([3]; first compound 0.1 µM) | relative viability ([3]; first compound 0.3162 µM) | relative viability ([3]; first compound 1 µM) | relative viability ([4]; first compound 0.02 µM) | relative viability ([4]; first compound 0.06325 µM) | relative viability ([4]; first compound 0.2 µM) | relative viability ([4]; first compound 0.6325 µM) | relative viability ([4]; first compound 2 µM)
NCI-H661 | 0.31 | 0.266 | 0.293 | 0.259 | 0.272 | 0.894 | 0.726 | 0.716 | 0.356 | 0.673 | 0.87 | 0.649 | 0.862 | 0.657 | 0.403 | 0.793 | 0.794 | 0.719 | 0.942 | 0.667
NCI-H727 | 0.591 | 0.556 | 0.641 | 0.498 | 0.504 | 0.851 | 0.703 | 0.546 | 0.613 | 0.634 | 0.855 | 0.783 | 0.908 | 0.796 | 0.456 | 0.853 | 0.818 | 0.775 | 0.705 | 0.87
NCI-H838 | 0.857 | 0.576 | 0.524 | 0.517 | 0.666 | 0.468 | 0.437 | 0.478 | 0.429 | 0.453 | 0.784 | 0.899 | 0.788 | 0.841 | 0.572 | 1.05 | 0.965 | 1.01 | 1.22 | 0.73
NCI-H1355 | 0.471 | 0.448 | 0.476 | 0.44 | 0.482 | 0.417 | 0.42 | 0.407 | 0.398 | 0.378 | 1.26 | 1.19 | 1.05 | 1.09 | 0.804 | 1.23 | 1.29 | 1.29 | 1.19 | 1.16
NCI-H1437 | 0.41 | 0.294 | 0.328 | 0.394 | 0.304 | 1.1 | 0.942 | 0.68 | 0.989 | 1.17 | 0.541 | 0.528 | 0.419 | 0.56 | 0.343 | 0.586 | 0.643 | 0.551 | 0.464 | 0.495
NCI-H1563 | 0.703 | 0.644 | 0.655 | 0.727 | 0.735 | 0.841 | 0.794 | 0.74 | 0.828 | 0.716 | 0.994 | 0.836 | 0.851 | 0.69 | 0.803 | 0.871 | 0.88 | 0.993 | 1.17 | 0.873
NCI-H1650 | 0.564 | 0.346 | 0.424 | 0.512 | 0.364 | 0.763 | 0.515 | 0.676 | 0.724 | 0.727 | 0.224 | 0.222 | 0.224 | 0.207 | 0.216 | 0.232 | 0.23 | 0.194 | 0.191 | 0.189
NCI-H1651 | 0.341 | 0.317 | 0.364 | 0.339 | 0.31 | 0.71 | 0.73 | 0.695 | 0.804 | 0.706 | 0.981 | 0.978 | 0.974 | 0.897 | 0.932 | 0.922 | 0.996 | 0.931 | 0.987 | 0.907
NCI-H1666 | 0.654 | 0.552 | 0.547 | 1.04 | 0.469 | 0.976 | 0.839 | 0.828 | 0.743 | 0.87 | 1.09 | 0.809 | 0.935 | 0.977 | 0.595 | 0.83 | 0.784 | 0.826 | 0.842 | 0.725
NCI-H1734 | 0.394 | 0.371 | 0.371 | 0.412 | 0.368 | 0.619 | 0.632 | 0.507 | 0.612 | 0.56 | 0.937 | 0.724 | 0.696 | 0.7 | 0.469 | 0.845 | 0.859 | 0.766 | 0.966 | 0.724
NCI-H1755 | 0.675 | 0.582 | 0.622 | 0.612 | 0.557 | 0.831 | 0.616 | 0.688 | 0.607 | 0.702 | 1.01 | 0.921 | 0.892 | 0.842 | 0.536 | 1.03 | 1 | 0.793 | 0.897 | 0.831
NCI-H1792 | 0.371 | 0.44 | – | – | 0.408 | 0.789 | 0.718 | 0.641 | 0.711 | 0.792 | 0.985 | 0.889 | 0.905 | 0.837 | 0.574 | 0.946 | 0.952 | 0.948 | 1.05 | 0.831
NCI-H1915 | 0.388 | 0.36 | 0.371 | 0.338 | 0.389 | 0.567 | 0.564 | 0.626 | 0.582 | 0.61 | 0.96 | 0.95 | 0.887 | 0.816 | 0.417 | 0.978 | 1.09 | 1.04 | 1.02 | 0.936
NCI-H1975 | 0.43 | 0.385 | 0.43 | 0.429 | 0.381 | 0.936 | 0.732 | 0.675 | 0.762 | 0.706 | 0.46 | 0.342 | 0.334 | 0.322 | 0.229 | 0.321 | 0.324 | 0.266 | 0.363 | 0.327
NCI-H1993 | 0.467 | 0.515 | 0.538 | 0.547 | 0.514 | 0.555 | 0.556 | 0.539 | 0.556 | 0.504 | 1.06 | 0.941 | 1.09 | 1.01 | 0.795 | 1.3 | 0.993 | 1.03 | 1.53 | 0.97
NCI-H2009 | 0.539 | 0.477 | 0.495 | 0.445 | 0.387 | 0.918 | 0.6 | 0.649 | 0.59 | 0.359 | 1.05 | 0.981 | 0.905 | 0.899 | 0.657 | 1.08 | 1.06 | 1.18 | 0.246 | 0.962
NCI-H2023 | 0.51 | 0.403 | 0.496 | 0.409 | 0.436 | 0.507 | 0.352 | 0.415 | 0.54 | 0.421 | 1.07 | 1.08 | 1.07 | 0.786 | 0.794 | 1 | 0.945 | 0.978 | 0.44 | 0.97
NCI-H2085 | 0.82 | 0.651 | 0.744 | 0.678 | 0.585 | 0.982 | 0.665 | 0.742 | 0.9 | 0.817 | 1.1 | 0.985 | 1.14 | 1.1 | 0.987 | 1.03 | 1 | 0.952 | 1.06 | 0.945
NCI-H2087 | 0.596 | 0.412 | 0.555 | 0.476 | 0.466 | 0.616 | 0.543 | 0.586 | 0.602 | 0.642 | 0.772 | 0.718 | 0.804 | 0.621 | 0.714 | 0.931 | 0.866 | 0.79 | 0.771 | 0.768
NCI-H2126 | 0.57 | 0.517 | 0.506 | 0.516 | 0.629 | 0.727 | 0.748 | 0.666 | 0.688 | 0.75 | 1.05 | 1.1 | 1.13 | 1.14 | 0.926 | 1.2 | 1.14 | 1.11 | 1.16 | 1.07
NCI-H2228 | 0.556 | 0.31 | 0.336 | 0.377 | 0.284 | 0.991 | 0.476 | 0.62 | 0.559 | 0.435 | 0.968 | 0.82 | 0.887 | 0.412 | 0.42 | 0.952 | 0.966 | 1.11 | 1.06 | 0.758
NCI-H2347 | 0.334 | 0.448 | 0.33 | 0.406 | 0.736 | 0.379 | 0.379 | 0.388 | 0.351 | 0.398 | 0.801 | 1.03 | 1.09 | 0.809 | 0.573 | – | 0.72 | 1.19 | 1.07 | 0.963
NCI-H2405 | 0.437 | 0.386 | 0.418 | 0.389 | 0.489 | 0.651 | 0.644 | 0.669 | 0.691 | 0.666 | 0.985 | 0.898 | 0.995 | 0.975 | 0.422 | 0.98 | 1.03 | 0.984 | 0.712 | 0.961
NCI-H3122 | 0.442 | 0.38 | 0.389 | 0.31 | 0.362 | 1.13 | 0.951 | 0.948 | 1.11 | 0.896 | 0.955 | 1.02 | 1.07 | 1.04 | 0.922 | 1.04 | 0.983 | 0.949 | 1.07 | 0.91
PC-3 [JPC-3] | 0.462 | 0.47 | 0.495 | 0.499 | 0.489 | 0.8 | 0.774 | 0.76 | 0.655 | 0.735 | 0.751 | 0.815 | 0.834 | 0.393 | 0.731 | 0.909 | 0.926 | 0.832 | 0.939 | 0.943
PC-14 | 0.614 | 0.521 | 0.572 | 0.497 | 0.801 | 1.54 | 0.778 | 0.749 | 0.766 | 1.17 | 0.798 | 0.726 | 0.886 | 0.953 | 0.693 | 0.968 | 0.845 | 0.778 | 1.01 | 0.81
RERF-LC-KJ | 0.5 | 0.409 | 0.509 | 0.441 | 0.462 | 0.668 | 0.563 | 0.58 | 0.554 | 0.619 | 1.17 | 1.16 | 1.07 | 1.03 | 0.761 | 1.19 | 1.05 | 1.29 | 1.07 | 1.04
SK-LU-1 | 0.775 | 0.54 | 0.499 | 0.509 | 0.588 | 0.361 | 0.347 | 0.341 | 0.345 | 0.354 | 1.18 | 1.08 | 1.09 | 0.453 | 0.512 | 1.41 | 1.37 | 1.51 | – | 1.15
SW 1573 | 0.465 | 0.35 | 0.401 | 0.342 | 0.17 | 0.867 | 0.385 | 0.528 | 0.634 | 0.183 | 1.38 | 0.91 | 1.17 | 0.873 | 0.514 | 0.944 | 0.927 | 0.813 | 0.764 | 0.875
